In US10294234B2, “HIV inhibitor compounds” (priority 2017, dated 2019):

Assays:
[1] = test system: HIV-1 (IIIB) in MT-4 cells; assay: MT-4 HIV assay; type: cell-based; details: Human immunodeficiency virus 1, MT4, 120 h; HIV-1 (IIIB), MT-4 cells, 5 days, Cell Titer Glo; read-out: EC50
Method in brief: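 MT-4 cells infected with HIV-1 IIIB (1:250 stock dilution) were incubated with 1:3 serially diluted compounds in RPMI with 10% FBS for 5 days at 37 °C. Cell Titer Glo luminescence was the readout. Plates included mock-infected wells, no-drug wells and 5 uM AZT controls.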

[2] = microsomes
Method in brief: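 Dog, rat and human liver microsomes (0.5 mg/mL) with NADPH-regenerating cofactor; test compound 1 uM, duplicates. Timepoints 2, 12, 25, 45, 65 min; protein removed by centrifugation, supernatant analysed by LC/MS/MS. Clint from t1/2.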

[3] = 3H Human Predicted Clearance Assay (tritiated analogs); type: in vitro ADME; details: human, 1 uM
Method: 3H Human Predicted Clearance Assay:
For certain compounds, tritiated analogs (H^3) were prepared to further determined their human predicted clearance with increased resolution. Those studies were performed as described above using the tritiated analogs. Data from those compounds is found in Table 2 below and reported in FIG. 1 (note ATV and DRV were not tritiated).

in vivo = details: rat, in vivo; for Vd / RAT PO F: male, SD; for Vd / RAT IV CL / RAT IV T1/2: iv; for RAT PO F: 2.5 mg/kg
Method: Each dosing group consisted of 3 male naïve SD Rats. At dosing, the animals weighed between 0.27 to 0.32 kg. The animals were fasted overnight prior to dose administration. The test article was administered by intravenous infusion over 30 min. The rate of infusion was adjusted according to the body weight of each animal to deliver a dose of 0.5 or 1.0 mg/kg. For the oral dosing group, the test article was administered to animals by oral gavage administration. Serial venous blood samples (approximately 0.30 mL each) were taken at predose and 0.25, 0.48, 0.58, 0.75, 1.5, 3, 6, 8, 12 and 24 hours post dose for the IV dosing group animals. Blood samples were taken at predose, 0.25, 0.50, 1, 2, 4, 6, 8, 12 and 24 hours post dose for the oral group animals. The blood samples were collected into Vacutainer™ tubes containing EDTA-K2 as the anti-coagulant and were immediately placed on wet ice pending centrifugation for plasma. An LC/MS/MS method was used to measure the concentration of test compound in plasma. Non-compartmental pharmacokinetic analysis was performed on the plasma concentration-time data.

SMILES	EC50 [1] [nM]	Human Pred Cl. [2] [L/H/kg]	Rat. Pred. Cl. [2] [L/H/kg]	3H Human Predicted Cl. [3]	Vd (in vivo) [L/kg]	RAT PO F (in vivo) [%]	RAT IV CL (in vivo) [mL/min/kg]	RAT IV T1/2 (in vivo) [h]	Dog. Pred. Cl. [2] [L/H/kg]
COC(=O)N[C@H](C(=O)NN(Cc1c(F)cc(-c2ccn(C(F)F)n2)cc1F)C[C@H](O)[C@H](Cc1ccc(C#Cc2ccc(N3CC4CCC(C3)N4C3COC3)nc2)cc1)NC(=O)[C@@H](NC(=O)OC)C(C)(C)C(F)(F)F)C(C)(C)C [Example 73, Methyl ((5S,8S,9S,14S)-11-(4-(1-(difluoromethyl)-1H-pyrazol-3-yl)-2,6-difluorobenzyl)-9-hydroxy-15,15-dimethyl-8-(4-((6-(8-(oxetan-3-yl)-3,8-diazabicyclo[3.2.1]octan-3-yl)pyridin-3-yl)ethynyl)benzyl)-3,6,13-trioxo-5-(1,1,1-trifluoro-2-methylpropan-2-yl)-2-oxa-4,7,11,12-tetraazahexadecan-14-yl)carbamate]	4.72	0.13	<0.18	0.09	3.34	35	5.33	9.43	
COC(=O)N[C@H](C(=O)N[C@@H](Cc1ccc(-c2cnc(N3CC4CCC(C3)N4C3COC3)nc2)cc1)[C@@H](O)CN(Cc1c(F)cc(-c2ccn(C(F)F)n2)cc1F)NC(=O)[C@@H](NC(=O)OC)C(C)(C)C(F)(F)F)C(C)(C)C(F)(F)F [Example 199, Methyl ((5S,8S,9S,14S)-11-(4-(1-(difluoromethyl)-1H-pyrazol-3-yl)-2,6-difluorobenzyl)-16,16,16-trifluoro-9-hydroxy-15,15-dimethyl-8-(4-(2-(8-(oxetan-3-yl)-3,8-diazabicyclo[3.2.1]octan-3-yl)pyrimidin-5-yl)benzyl)-3,6,13-trioxo-5-(1,1,1-trifluoro-2-methylpropan-2-yl)-2-oxa-4,7,11,12-tetraazahexadecan-14-yl)carbamate]	2.72	<0.11	0.48	0.15	1.07	14.7	7.67	2.09	0.91
COC(=O)N[C@H](C(=O)N[C@@H](Cc1ccc(C#Cc2cnc(N3CC4CCC(C3)N4C3COC3)nc2)cc1)[C@@H](O)CN(Cc1c(F)cc(-c2ncccn2)cc1F)NC(=O)[C@@H](NC(=O)OC)C(C)(C)C(F)(F)F)C(C)(C)C(F)(F)F [Example 89, Methyl ((5S,8S,9S,14S)-11-(2,6-difluoro-4-(pyrimidin-2-yl)benzyl)-16,16,16-trifluoro-9-hydroxy-15,15-dimethyl-8-(4-((2-(8-(oxetan-3-yl)-3,8-diazabicyclo[3.2.1]octan-3-yl)pyrimidin-5-yl)ethynyl)benzyl)-3,6,13-trioxo-5-(1,1,1-trifluoro-2-methylpropan-2-yl)-2-oxa-4,7,11,12-tetraazahexadecan-14-yl)carbamate]	3.32	<0.11	<0.18	0.08	3.53	44.2	5	10.2	1.67
COC(=O)N[C@H](C(=O)N[C@@H](Cc1ccc(C#Cc2cnc(N3CC4CCC(C3)N4C3COC3)nc2)cc1)[C@@H](O)CN(Cc1c(F)cc(-c2ccn(CC(F)F)n2)cc1F)NC(=O)[C@@H](NC(=O)OC)C(C)(C)C(F)(F)F)C(C)(C)C(F)(F)F [Example 36, Methyl ((5S,8S,9S,14S)-11-(4-(1-(2,2-difluoroethyl)-1H-pyrazol-3-yl)-2,6-difluorobenzyl)-16,16,16-trifluoro-9-hydroxy-15,15-dimethyl-8-(4-((2-(8-(oxetan-3-yl)-3,8-diazabicyclo[3.2.1]octan-3-yl)pyrimidin-5-yl)ethynyl)benzyl)-3,6,13-trioxo-5-(1,1,1-trifluoro-2-methylpropan-2-yl)-2-oxa-4,7,11,12-tetraazahexadecan-14-yl)carbamate]	3.68	<0.11	0.27	0.1	5.99	16.4	5.33	15.7	
COC(=O)N[C@H](C(=O)N[C@@H](Cc1ccc(C#Cc2ccc(N3CC4CCC(C3)N4C3COC3)nc2)cc1)[C@@H](O)CN(Cc1c(F)cc(-c2ncccn2)cc1F)NC(=O)[C@@H](NC(=O)OC)C(C)(C)C(F)(F)F)C(C)(C)C(F)(F)F [Example 101, Methyl ((5S,8S,9S,14S)-11-(2,6-difluoro-4-(pyrimidin-2-yl)benzyl)-16,16,16-trifluoro-9-hydroxy-15,15-dimethyl-8-(4-((6-(8-(oxetan-3-yl)-3,8-diazabicyclo [3.2.1]octan-3-yl)pyridin-3-yl)ethynyl)benzyl)-3,6,13-trioxo-5-(1,1,1-trifluoro-2-methylpropan-2-yl)-2-oxa-4,7,11,12-tetraazahexadecan-14-yl)carbamate]	4.22	<0.11	<0.18	0.08	6.07	38.4	8	10	
COC(=O)N[C@H](C(=O)N[C@@H](Cc1ccc(C#Cc2ccc(N3CC4CCC(C3)N4C3COC3)nc2)cc1)[C@@H](O)CN(Cc1c(F)cc(-c2cc(F)ccn2)cc1F)NC(=O)[C@@H](NC(=O)OC)C(C)(C)C(F)(F)F)C(C)(C)C(F)(F)F [Example 239, methyl ((5S,8S,9S,14S)-11-(2,6-difluoro-4-(4-fluoropyridin-2-yl)benzyl)-16,16,16-trifluoro-9-hydroxy-15,15-dimethyl-8-(4-((6-(8-(oxetan-3-yl)-3,8-diazabicyclo[3.2.1]octan-3-yl)pyridin-3-yl)ethynyl)benzyl)-3,6,13-trioxo-5-(1,1,1-trifluoro-2-methylpropan-2-yl)-2-oxa-4,7,11,12-tetraazahexadecan-14-yl)carbamate]	4.45	<0.11	<0.18	0.13	5.49	26.3	6.7	12.9	
COC(=O)N[C@H](C(=O)N[C@@H](Cc1ccc(C#Cc2ccc(N3CC4CCC(C3)N4C3COC3)nc2)cc1)[C@@H](O)CN(Cc1c(F)cc(-c2ccn(CC(F)F)n2)cc1F)NC(=O)[C@@H](NC(=O)OC)C(C)(C)C(F)(F)F)C(C)(C)C(F)(F)F [Example 46, Methyl ((5S,10S,11S,14S)-8-(4-(1-(2,2-difluoroethyl)-1H-pyrazol-3-yl)-2,6-difluorobenzyl)-16,16,16-trifluoro-10-hydroxy-15,15-dimethyl-11-(4-((6-(8-(oxetan-3-yl)-3,8-diazabicyclo[3.2.1]octan-3-yl)pyridin-3-yl)ethynyl)benzyl)-3,6,13-trioxo-5-(1,1,1-trifluoro-2-methylpropan-2-yl)-2-oxa-4,7,8,12-tetraazahexadecan-14-yl)carbamate]	4.34	<0.11	0.19	0.04	4.22	13	7.5	9.22	1.64
